Data set [1] relates to Mus musculus. Briefly: Toxicity in CD1 mouse assessed as effect on autonomic system up to 80 mg/kg, po measured for 24 hrs by Irwin test. Conditions: in vivo. Type of data set: organism-based. Set-up: dose 80 mg/kg, route oral.
Data set [2] concerns Mus musculus. The data set can be described thus: Toxicity in CD1 mouse assessed as effect on neuromotor tonus up to 80 mg/kg, po measured for 24 hrs by Irwin test. Type of data set: organism-based. More on the design: dose 80 mg/kg, route oral. Conditions: in vivo.
The subject of data set [3] is Mus musculus. The data set can be described thus: Toxicity in CD1 mouse assessed as effect on neurovegetative reflexes up to 80 mg/kg, po measured for 24 hrs by Irwin test. It counts as organism-based. More on the design: dose 80 mg/kg, route oral. The following applies: in vivo.
Data set [4] has as its system Mus musculus. The data set can be described thus: Toxicity in CD1 mouse assessed as effect on central reactivity up to 80 mg/kg, po measured for 24 hrs by Irwin test. Type of data set: organism-based. More on the design: dose 80 mg/kg, route oral. Conditions: in vivo.
Data set [5] relates to Mus musculus. Briefly: Toxicity in CD1 mouse assessed as effect on central activity up to 80 mg/kg, po measured for 24 hrs by Irwin test. It counts as organism-based. More on the design: dose 80 mg/kg, route oral. Conditions: in vivo.
A short description of data set [6]: Tmax in CD1 mouse at 10 mg/kg, po. Type of data set: ADME, organism-based. More on the design: dose 10 mg/kg, route oral. Conditions: in vivo.
Data set [7] in a line: Oral bioavailability in CD1 mouse at 10 mg/kg. It counts as ADME, organism-based. Conditions: in vivo.
Data set [8] can be described thus: Cmax in CD1 mouse at 10 mg/kg, po. It counts as ADME, organism-based. The following applies: in vivo. Set-up: dose 10 mg/kg, route oral.
Data set [9] is described as follows: AUCinfinity in CD1 mouse at 2 mg/kg, iv. More on the design: time infinity, dose 2 mg/kg, route intravenous. Type of data set: ADME, organism-based. The following applies: plasma.
Data set [10] in a line: AUCinfinity in CD1 mouse at 10 mg/kg, po. Type of data set: ADME, organism-based. More on the design: time infinity, dose 10 mg/kg, route oral. Conditions: plasma.
A short description of data set [11]: AUC (0 to t) in CD1 mouse at 2 mg/kg, iv. It counts as ADME, organism-based. Set-up: dose 2 mg/kg, route intravenous. Conditions: plasma.
Data set [12] in a line: AUC (0 to t) in CD1 mouse at 10 mg/kg, po. It counts as ADME, organism-based. More on the design: dose 10 mg/kg, route oral. Conditions: plasma.
Data set [13] can be described thus: Half life in CD1 mouse at 2 mg/kg, iv. Set-up: dose 2 mg/kg, route intravenous. The following applies: in vivo. Type of data set: ADME, organism-based.
Data set [14] can be described thus: Half life in CD1 mouse at 10 mg/kg, po. Type of data set: ADME, organism-based. More on the design: dose 10 mg/kg, route oral. The following applies: in vivo.
Data set [15] is described as follows: Apparent volume of distribution in CD1 mouse at 2 mg/kg, iv. It counts as ADME, organism-based. Set-up: dose 2 mg/kg, route intravenous. Conditions: in vivo, read-out: Vz.
Data set [16] in a line: Clearance in CD1 mouse at 2 mg/kg, iv. Conditions: in vivo. It counts as ADME, organism-based. Set-up: dose 2 mg/kg, route intravenous.
For data set [17], the target named is T1, 5-hydroxytryptamine receptor 1A (Homo sapiens) (UniProt P08908).
T1 sequence (whole entry): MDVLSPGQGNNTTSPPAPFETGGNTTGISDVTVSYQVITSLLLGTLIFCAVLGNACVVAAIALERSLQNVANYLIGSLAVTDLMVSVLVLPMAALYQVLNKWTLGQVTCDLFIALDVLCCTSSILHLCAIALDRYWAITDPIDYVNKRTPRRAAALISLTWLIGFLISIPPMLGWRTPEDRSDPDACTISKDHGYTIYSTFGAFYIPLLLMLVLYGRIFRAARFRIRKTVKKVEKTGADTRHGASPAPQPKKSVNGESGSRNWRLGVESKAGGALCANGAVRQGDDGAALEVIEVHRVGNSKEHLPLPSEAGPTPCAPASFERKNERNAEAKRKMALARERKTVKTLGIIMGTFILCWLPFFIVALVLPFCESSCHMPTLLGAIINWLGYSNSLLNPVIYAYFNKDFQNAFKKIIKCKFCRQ
The data set can be described thus: Antagonist activity at human 5-HT1A receptor transfected in CHO cells assessed as reversal of 8-OH-DPAT-induced cAMP reduction. Type of data set: functional, cell-based.

Data set [18] concerns the target T1, 5-hydroxytryptamine receptor 1A (Homo sapiens). The data set can be described thus: Agonist activity at human 5-HT1A receptor transfected in CHO cells assessed as inhibition of forskolin-induced cAMP accumulation at 100 nM relative to control. Type of data set: functional, cell-based. For orientation: Changes in cAMP serve as a functional read-out for many G protein-coupled receptors.

A further data set has as its target T2, D(4) dopamine receptor (Homo sapiens, UniProt P21917).
T2 sequence (P21917 whole entry): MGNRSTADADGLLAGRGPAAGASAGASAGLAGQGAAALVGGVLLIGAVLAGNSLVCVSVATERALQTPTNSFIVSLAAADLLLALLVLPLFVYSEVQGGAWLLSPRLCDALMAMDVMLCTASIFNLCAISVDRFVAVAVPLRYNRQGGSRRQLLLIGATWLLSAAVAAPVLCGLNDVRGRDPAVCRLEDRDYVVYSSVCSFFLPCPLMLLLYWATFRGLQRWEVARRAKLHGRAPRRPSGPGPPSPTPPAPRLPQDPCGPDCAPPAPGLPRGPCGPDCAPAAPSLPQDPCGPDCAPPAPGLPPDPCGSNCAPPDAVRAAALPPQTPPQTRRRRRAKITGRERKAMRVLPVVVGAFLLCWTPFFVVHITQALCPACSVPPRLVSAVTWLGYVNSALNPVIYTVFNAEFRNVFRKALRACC
Briefly: Inhibition of dopamine D4 receptor (unknown origin).

In data set [19] the target is T3, D(4) dopamine receptor (Homo sapiens) (UniProt P21917).
T3 sequence (whole entry): T2 sequence (P21917 whole entry)
Briefly: Inhibition of dopamine D4 receptor (unknown origin) at 10 nM relative to control.

The target in data set [20] is T4, D(3) dopamine receptor (Homo sapiens, UniProt P35462). Briefly: Inhibition of human dopamine D3 receptor.
Data set [21] addresses T3, D(4) dopamine receptor (Homo sapiens). The data set can be described thus: Inhibition of dopamine D4 receptor (unknown origin) at 100 nM relative to control.
The target in data set [22] is T4, D(3) dopamine receptor. Briefly: Inhibition of human dopamine D3 receptor at 10 nM relative to control.
Data set [23] deals with T4, D(3) dopamine receptor. The data set can be described thus: Inhibition of human dopamine D3 receptor at 100 nM relative to control.
The target of data set [24] is T5, D(2) dopamine receptor (Homo sapiens, UniProt P14416). Briefly: Inhibition of human recombinant dopamine D2S receptor expressed in HEK293 cells. Type of data set: cell-based.
Data set [25] addresses T6, 5-hydroxytryptamine receptor 7 (Homo sapiens, UniProt P34969). The data set can be described thus: Inhibition of human 5-HT7 receptor.
Data set [26] concerns the target T6, 5-hydroxytryptamine receptor 7. The data set can be described thus: Inhibition of human 5-HT7 receptor at 10 nM relative to control.
For data set [27] the target is unchanged. The data set can be described thus: Inhibition of human 5-HT7 receptor at 100 nM relative to control.
In data set [28] the target is T7, 5-hydroxytryptamine receptor 2B (Homo sapiens, UniProt P41595). The data set can be described thus: Inhibition of human 5-HT2B receptor.
In data set [29] the target is T7, 5-hydroxytryptamine receptor 2B. The data set can be described thus: Inhibition of human 5-HT2B receptor at 10 nM relative to control.
The target is the same in data set [30]. The data set can be described thus: Inhibition of human 5-HT2B receptor at 100 nM relative to control.
Data set [31] concerns the target T8, 5-hydroxytryptamine receptor 1A (Rattus norvegicus, UniProt P19327).
T8 sequence (P19327 whole entry): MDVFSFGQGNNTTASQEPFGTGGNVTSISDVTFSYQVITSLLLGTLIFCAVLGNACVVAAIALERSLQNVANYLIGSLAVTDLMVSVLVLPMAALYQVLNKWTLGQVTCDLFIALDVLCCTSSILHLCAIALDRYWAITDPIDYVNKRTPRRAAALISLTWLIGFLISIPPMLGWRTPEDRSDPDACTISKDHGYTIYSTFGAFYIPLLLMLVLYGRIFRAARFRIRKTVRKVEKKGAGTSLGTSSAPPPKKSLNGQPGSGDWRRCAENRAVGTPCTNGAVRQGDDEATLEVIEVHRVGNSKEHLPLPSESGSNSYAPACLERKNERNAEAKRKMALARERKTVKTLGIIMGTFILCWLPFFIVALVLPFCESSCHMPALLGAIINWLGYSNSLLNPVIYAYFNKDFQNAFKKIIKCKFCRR
The data set can be described thus: Displacement of [3H]8-OH-DPAT from 5-HT1A receptor in Wistar rat cerebral hippocampus membrane after 10 mins. It counts as tissue-based. Conditions: read-out: Ki(app).

Data set [32] addresses T5, D(2) dopamine receptor. The following applies: HEK293, 100 nM.
Data set [33] concerns the target T7, 5-hydroxytryptamine receptor 2B. The data set can be described thus: Binding affinity to human 5-HT2B receptor by radioligand displacement assay. Background: Displacement assays read how much labelled ligand stays bound in the presence of the test substance.
Data set [34] deals with T5, D(2) dopamine receptor. The following applies: HEK293, 10 nM.

The source made the active and inactive calls.

A word on the Tmax: it is the time at which the peak concentration occurs. What is called bioavailability is the share of a dose that reaches the circulation, judged against a reference dose that is usually intravenous. Usually Cmax stands for the maximum level reached in the sampled fluid or tissue. As a reminder, the AUC(0-inf) is total exposure, with the tail of the curve extrapolated. High values mean more exposure, low ones less exposure. As a reminder, the AUC(0-t) is exposure summed from dosing to a finite time, without extrapolation to infinity. Higher therefore signals more exposure. For orientation: half-life means the time needed for the level to fall by half in the phase considered. A word on the clearance: it is the rate of elimination divided by the concentration. Lower therefore signals a low capacity for elimination. As usually defined, the inhibition is the change of the read-out against control, counted positive when it falls. As a reminder, the IC50 is the concentration that gives 50% inhibition.

T7 sequence (P41595 whole entry): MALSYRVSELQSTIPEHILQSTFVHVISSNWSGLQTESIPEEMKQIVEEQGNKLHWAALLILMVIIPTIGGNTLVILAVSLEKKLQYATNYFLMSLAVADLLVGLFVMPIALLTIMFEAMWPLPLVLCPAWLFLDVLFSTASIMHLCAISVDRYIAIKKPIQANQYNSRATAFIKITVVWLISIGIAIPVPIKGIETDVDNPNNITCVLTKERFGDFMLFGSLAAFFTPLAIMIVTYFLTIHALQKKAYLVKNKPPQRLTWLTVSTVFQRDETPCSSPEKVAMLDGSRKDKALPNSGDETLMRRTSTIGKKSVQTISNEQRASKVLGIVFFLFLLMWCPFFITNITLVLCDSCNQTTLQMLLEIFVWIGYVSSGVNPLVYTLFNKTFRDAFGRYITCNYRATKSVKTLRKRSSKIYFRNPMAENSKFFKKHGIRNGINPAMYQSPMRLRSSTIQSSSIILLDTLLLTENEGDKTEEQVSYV
T5 sequence (P14416 whole entry): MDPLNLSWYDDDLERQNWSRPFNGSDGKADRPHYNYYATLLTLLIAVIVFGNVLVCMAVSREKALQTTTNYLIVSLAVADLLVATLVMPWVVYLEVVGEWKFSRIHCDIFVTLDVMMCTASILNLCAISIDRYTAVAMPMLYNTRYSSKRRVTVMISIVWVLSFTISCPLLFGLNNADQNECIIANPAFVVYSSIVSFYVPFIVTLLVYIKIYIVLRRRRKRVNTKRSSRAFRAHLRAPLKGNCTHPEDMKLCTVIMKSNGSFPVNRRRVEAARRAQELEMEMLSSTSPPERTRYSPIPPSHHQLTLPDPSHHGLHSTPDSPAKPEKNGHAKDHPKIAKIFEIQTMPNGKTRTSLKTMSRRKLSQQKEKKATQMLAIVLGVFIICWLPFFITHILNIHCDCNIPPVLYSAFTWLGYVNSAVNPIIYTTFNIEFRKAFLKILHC
T6 sequence (P34969 whole entry): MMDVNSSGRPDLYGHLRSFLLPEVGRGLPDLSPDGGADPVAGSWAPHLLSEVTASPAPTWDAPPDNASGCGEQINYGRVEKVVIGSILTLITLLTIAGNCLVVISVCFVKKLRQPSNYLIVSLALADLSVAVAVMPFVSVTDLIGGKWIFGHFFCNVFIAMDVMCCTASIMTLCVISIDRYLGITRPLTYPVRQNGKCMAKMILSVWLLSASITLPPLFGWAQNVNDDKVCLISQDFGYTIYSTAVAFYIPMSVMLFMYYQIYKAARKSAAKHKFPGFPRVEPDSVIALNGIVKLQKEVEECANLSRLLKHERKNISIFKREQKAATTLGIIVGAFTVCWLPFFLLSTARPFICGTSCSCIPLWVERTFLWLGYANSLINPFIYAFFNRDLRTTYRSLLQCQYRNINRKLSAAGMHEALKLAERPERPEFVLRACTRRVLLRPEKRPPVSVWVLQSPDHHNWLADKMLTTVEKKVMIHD
T4 sequence (P35462 whole entry): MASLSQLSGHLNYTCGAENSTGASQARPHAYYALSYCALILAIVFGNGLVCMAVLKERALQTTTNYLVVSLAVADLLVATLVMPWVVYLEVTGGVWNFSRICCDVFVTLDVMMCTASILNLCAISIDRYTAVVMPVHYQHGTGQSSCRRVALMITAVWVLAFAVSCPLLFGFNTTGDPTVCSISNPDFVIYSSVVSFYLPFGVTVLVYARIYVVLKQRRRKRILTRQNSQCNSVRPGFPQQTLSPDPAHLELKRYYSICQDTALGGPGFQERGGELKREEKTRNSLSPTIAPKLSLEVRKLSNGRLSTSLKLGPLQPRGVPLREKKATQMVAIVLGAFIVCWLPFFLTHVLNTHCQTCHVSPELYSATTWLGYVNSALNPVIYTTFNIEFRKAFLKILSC

For `COc1ccccc1N1CCN(CCCCCN2Cc3c(Cl)nc4ccccc4c3C2=O)CC1`, the Activity result with Mus musculus [1], in the data set on Mus musculus [2], with Mus musculus [3], in the data set on Mus musculus [4] and in the data set on Mus musculus [5] was “Non-toxic” in each case. For the same molecule, in data set [6], the Tmax is 1 h. In data set [7], this molecule came in with a bioavailability of 45%. In data set [8], this molecule had a peak concentration (Cmax) of 35 ng/mL. In addition, the AUC(0-inf) was determined as 76 ng·h/mL in data set [9] and 239 ng·h/mL in data set [10]. The AUC(0-t) is 70 ng·h/mL in data set [11] and 157 ng·h/mL in data set [12]. For the same molecule, the half-life in [13] was 1.5 h; in data set [14] it was 4.5 h. In addition, in data set [15], the Vd turned out to be 58.7 L/kg. Moreover, the clearance in [16] was 440 mL/min/kg. Also, in data set [17], the result was inactive. Also, the inhibition was determined as 60% in data set [18]; 10% in data set [19]; 28% in [21]; 38% on D(3) dopamine receptor [22]; 74% on D(3) dopamine receptor [23]; 24% in data set [26]. Moreover, the inhibition came out at 42% in [27], 18% in data set [29], 65% in data set [30] and 26% on D(2) dopamine receptor [32]. In addition, the IC50 is more than 0.1 µM at D(4) dopamine receptor; 0.031 µM against D(3) dopamine receptor [20]; more than 0.1 µM at D(2) dopamine receptor [24]; more than 0.1 µM in data set [25]; 0.063 µM in data set [28]. In addition, in [31], the Ki came to 0.0017 µM.

The molecule `COc1cc(CC(C)N)c(OC)cc1I` (racemic) showed a concentration for half-maximal inhibition (IC50) in data set [33] of 0.004 µM.

For the molecule `COc1ccccc1N1CCN(CCCCCN2Cc3ccc4ccccc4c3C2=O)CC1`, the Activity entry in the data set on Mus musculus [1], in the data set on Mus musculus [2], in the data set with Mus musculus [3], with Mus musculus [4] and with Mus musculus [5] was “Non-toxic” in each case. Also, the time to peak (Tmax) in [6] came out at 0.3 h. This molecule also returned a bioavailability in data set [7] of 20%. The molecule further had a Cmax in data set [8] of 56 ng/mL. Besides, the AUC(0-inf) is 210 ng·h/mL in data set [9] and 325 ng·h/mL in data set [10]. Further, the area under the curve AUC(0-t) in [11] was found to be 207 ng·h/mL; in data set [12] it was 212 ng·h/mL. The results for the half-life in data set [13] and in data set [14] were 1.3 h and 4.7 h, respectively. For the same molecule, the Vd in data set [15] came to 17.6 L/kg. In [16], this molecule had a clearance of 159 mL/min/kg. For the same molecule, the result in [17] was inactive. The inhibition was 63% in [18]; 13% in data set [19]; 60% in data set [21]; 39% against D(3) dopamine receptor [22]; 86% against D(3) dopamine receptor [23]; 18% in data set [26]. Besides, the inhibition amounted to 65% in data set [27]; 28% in [29]; 70% in data set [30]; 74% on D(2) dopamine receptor [34]; 90% against D(2) dopamine receptor [32]. Also, the IC50 against D(4) dopamine receptor worked out at 0.065 µM; at D(3) dopamine receptor [20], 0.024 µM; on D(2) dopamine receptor [24], 0.0035 µM; in [25], 0.062 µM; in data set [28], 0.043 µM. In addition, in data set [31], the Ki stood at 0.0016 µM.

The values are drawn from ChEMBL document CHEMBL2390830 (Eur J Med Chem, 2013).
